This passage reports TGI results from PubChem BioAssay (NCI).

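The compound was tested at five concentrations on cells cultured in 96-well plates, with a 48-hour exposure period. The concentration for full growth arrest is given as TGI.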 Where only a bound is given, the exact number is not on record here.

The test system of the first assay is SK-MEL-5 melanoma. The assay can be described thus: NCI tumour cell line growth inhibition, 48 h.
In the case of `COc1cccc(CCCNC(=O)Cc2cc(OC)c(OC)cc2CO)c1`, the TGI is > 100 µM.

In the case of `COc1cc(C2c3cc4c(cc3OC(NN)C2C)OCO4)cc(OC)c1OC` (stereo not given), the TGI is > 26.8 µM.

As for `Cc1cccc2c1CC1(C2)Cc2c(C)cccc2C1=O` (stereo not given), the TGI stood at 33.7 µM.

Consider `NS(=O)(=O)c1cc2c(cc1Cl)NC(CCC(=O)O)=NS2(=O)=O`, for which the TGI is > 100 µM.

Another assay relates to MALME-3M melanoma. The assay can be described thus: NCI tumour cell line growth inhibition, 48 h.
Consider `COc1cccc(CCCNC(=O)Cc2cc(OC)c(OC)cc2CO)c1`, for which the TGI is > 100 µM.

`COc1cc(C2c3cc4c(cc3OC(NN)C2C)OCO4)cc(OC)c1OC` (stereo not given): the TGI is > 100 µM.

Take `Cc1cccc2c1CC1(C2)Cc2c(C)cccc2C1=O` (stereo not given): the TGI amounted to 49.7 µM.

In the case of `NS(=O)(=O)c1cc2c(cc1Cl)NC(CCC(=O)O)=NS2(=O)=O`, the TGI is > 100 µM.

The subject of another assay is EKVX NSCLC. The experiment in a line: NCI tumour cell line growth inhibition, 48 h.
Take `COc1cccc(CCCNC(=O)Cc2cc(OC)c(OC)cc2CO)c1`: the TGI is > 100 µM.

For `COc1cc(C2c3cc4c(cc3OC(NN)C2C)OCO4)cc(OC)c1OC` (stereo not given), the TGI is > 100 µM.

For the compound `Cc1cccc2c1CC1(C2)Cc2c(C)cccc2C1=O` (stereo not given), the TGI came out at 72.8 µM.

`NS(=O)(=O)c1cc2c(cc1Cl)NC(CCC(=O)O)=NS2(=O)=O`: the TGI is > 100 µM.

The next assay concerns SK-MEL-28 melanoma. The experiment in a line: NCI tumour cell line growth inhibition, 48 h.
Turning to `COc1cccc(CCCNC(=O)Cc2cc(OC)c(OC)cc2CO)c1`, the TGI was > 100 µM.

In the case of `COc1cc(C2c3cc4c(cc3OC(NN)C2C)OCO4)cc(OC)c1OC` (stereo not given), the TGI is > 100 µM.

In turn, `Cc1cccc2c1CC1(C2)Cc2c(C)cccc2C1=O` (stereo not given) registered a TGI of 56.5 µM.

Consider `NS(=O)(=O)c1cc2c(cc1Cl)NC(CCC(=O)O)=NS2(=O)=O`, for which the TGI was > 100 µM.

Another assay concerns HCC-2998 colon. The assay can be described thus: NCI tumour cell line growth inhibition, 48 h.
With `COc1cccc(CCCNC(=O)Cc2cc(OC)c(OC)cc2CO)c1`, the TGI was > 100 µM.

`COc1cc(C2c3cc4c(cc3OC(NN)C2C)OCO4)cc(OC)c1OC` (stereo not given) showed a TGI of 3.55 µM.

Compound `Cc1cccc2c1CC1(C2)Cc2c(C)cccc2C1=O` (stereo not given) gave a TGI of 65.1 µM.

The test system of a further assay is CAKI-1 renal. The experiment in a line: NCI tumour cell line growth inhibition, 48 h.
Take `COc1cccc(CCCNC(=O)Cc2cc(OC)c(OC)cc2CO)c1`: the TGI was > 100 µM.

For `COc1cc(C2c3cc4c(cc3OC(NN)C2C)OCO4)cc(OC)c1OC` (stereo not given), the TGI is > 90.6 µM.

`Cc1cccc2c1CC1(C2)Cc2c(C)cccc2C1=O` (stereo not given) returned a TGI of 48.6 µM.

For `NS(=O)(=O)c1cc2c(cc1Cl)NC(CCC(=O)O)=NS2(=O)=O`, the TGI is > 100 µM.

The next assay has as its system MCF7 breast. The experiment in a line: NCI tumour cell line growth inhibition, 48 h.
Consider `COc1cc(C2c3cc4c(cc3OC(NN)C2C)OCO4)cc(OC)c1OC` (stereo not given), for which the TGI is > 40 µM.

Consider `Cc1cccc2c1CC1(C2)Cc2c(C)cccc2C1=O` (stereo not given), for which the TGI was 94.7 µM.

Consider `NS(=O)(=O)c1cc2c(cc1Cl)NC(CCC(=O)O)=NS2(=O)=O`, for which the TGI was > 100 µM.

In the next assay the test system is COLO 205 colon. The experiment in a line: NCI tumour cell line growth inhibition, 48 h.
As to `COc1cccc(CCCNC(=O)Cc2cc(OC)c(OC)cc2CO)c1`, the TGI was > 100 µM.

With `COc1cc(C2c3cc4c(cc3OC(NN)C2C)OCO4)cc(OC)c1OC` (stereo not given), the TGI was found to be 13.9 µM.

Turning to `Cc1cccc2c1CC1(C2)Cc2c(C)cccc2C1=O` (stereo not given), the TGI stood at 29.7 µM.

On to `NS(=O)(=O)c1cc2c(cc1Cl)NC(CCC(=O)O)=NS2(=O)=O`, for which the TGI is > 100 µM.

The test system of another assay is OVCAR-8 ovarian. The experiment in a line: NCI tumour cell line growth inhibition, 48 h.
Turning to `COc1cccc(CCCNC(=O)Cc2cc(OC)c(OC)cc2CO)c1`, the TGI is > 100 µM.

Regarding `COc1cc(C2c3cc4c(cc3OC(NN)C2C)OCO4)cc(OC)c1OC` (stereo not given), the TGI is > 100 µM.

Turning to `Cc1cccc2c1CC1(C2)Cc2c(C)cccc2C1=O` (stereo not given), the TGI is > 100 µM.

In the case of `NS(=O)(=O)c1cc2c(cc1Cl)NC(CCC(=O)O)=NS2(=O)=O`, the TGI is > 100 µM.

For the next assay, the system named is IGROV1 ovarian. The experiment in a line: NCI tumour cell line growth inhibition, 48 h.
For `COc1cccc(CCCNC(=O)Cc2cc(OC)c(OC)cc2CO)c1`, the TGI is > 100 µM.

Take `COc1cc(C2c3cc4c(cc3OC(NN)C2C)OCO4)cc(OC)c1OC` (stereo not given): the TGI is > 100 µM.

In the case of `Cc1cccc2c1CC1(C2)Cc2c(C)cccc2C1=O` (stereo not given), the TGI was > 100 µM.

Consider `NS(=O)(=O)c1cc2c(cc1Cl)NC(CCC(=O)O)=NS2(=O)=O`, for which the TGI is > 100 µM.

Another assay relates to SR leukemia. The experiment in a line: NCI tumour cell line growth inhibition, 48 h.
Turning to `COc1cccc(CCCNC(=O)Cc2cc(OC)c(OC)cc2CO)c1`, the TGI is > 100 µM.

`Cc1cccc2c1CC1(C2)Cc2c(C)cccc2C1=O` (stereo not given): the TGI is 37.4 µM.

The test system of the next assay is HCT-116 colon. The assay can be described thus: NCI tumour cell line growth inhibition, 48 h.
As to `COc1cccc(CCCNC(=O)Cc2cc(OC)c(OC)cc2CO)c1`, the TGI was > 100 µM.

On to `COc1cc(C2c3cc4c(cc3OC(NN)C2C)OCO4)cc(OC)c1OC` (stereo not given), for which the TGI was > 28.2 µM.

`Cc1cccc2c1CC1(C2)Cc2c(C)cccc2C1=O` (stereo not given) yielded a TGI of 35.7 µM.

With `NS(=O)(=O)c1cc2c(cc1Cl)NC(CCC(=O)O)=NS2(=O)=O`, the TGI was > 100 µM.

The test system of another assay is PC-3 prostate. The assay can be described thus: NCI tumour cell line growth inhibition, 48 h.
As for `COc1cccc(CCCNC(=O)Cc2cc(OC)c(OC)cc2CO)c1`, the TGI is > 100 µM.

For `COc1cc(C2c3cc4c(cc3OC(NN)C2C)OCO4)cc(OC)c1OC` (stereo not given), the TGI is > 100 µM.

For `Cc1cccc2c1CC1(C2)Cc2c(C)cccc2C1=O` (stereo not given), the TGI was > 100 µM.

For `NS(=O)(=O)c1cc2c(cc1Cl)NC(CCC(=O)O)=NS2(=O)=O`, the TGI is > 100 µM.

Another assay concerns SW-620 colon. The experiment in a line: NCI tumour cell line growth inhibition, 48 h.
Regarding `COc1cccc(CCCNC(=O)Cc2cc(OC)c(OC)cc2CO)c1`, the TGI is > 100 µM.

Take `COc1cc(C2c3cc4c(cc3OC(NN)C2C)OCO4)cc(OC)c1OC` (stereo not given): the TGI was > 100 µM.

As for `Cc1cccc2c1CC1(C2)Cc2c(C)cccc2C1=O` (stereo not given), the TGI is > 100 µM.

As to `NS(=O)(=O)c1cc2c(cc1Cl)NC(CCC(=O)O)=NS2(=O)=O`, the TGI is > 100 µM.

The subject of the next assay is MDA-MB-435. The assay can be described thus: NCI tumour cell line growth inhibition, 48 h.
With `COc1cccc(CCCNC(=O)Cc2cc(OC)c(OC)cc2CO)c1`, the TGI is > 100 µM.

The compound `Cc1cccc2c1CC1(C2)Cc2c(C)cccc2C1=O` (stereo not given) returned a TGI of 55.8 µM.

Consider `NS(=O)(=O)c1cc2c(cc1Cl)NC(CCC(=O)O)=NS2(=O)=O`, for which the TGI was > 100 µM.
